Literature values as cited in patent US20040058969A1, “Novel epothilone derivatives, method for the preparation thereof and their pharmaceutical use” (priority 2000, published 2004).

Test system: P-glycoprotein-forming multiresistant tumor lines
Conditions: in vitro, relative to taxol

Structure (SMILES): C/C(=C\c1csc(C)n1)[C@@H]1C[C@@H]2O[C@@H]2CCC[C@H](C)[C@H](O)[C@@H](C)C(=O)C(C)(C)[C@@H](O)CC(=O)O1 [Epothilone A, epothilone A]
- activity against P-glycoprotein-forming multiresistant tumor lines in comparison to taxol: significantly higher activity

Structure (SMILES): C/C(=C\c1csc(C)n1)[C@@H]1C[C@@H]2O[C@]2(C)CCC[C@H](C)[C@H](O)[C@@H](C)C(=O)C(C)(C)[C@@H](O)CC(=O)O1 [Epothilone B, epothilone B]
- activity against P-glycoprotein-forming multiresistant tumor lines in comparison to taxol: significantly higher activity
